Source: patent US3983248A (priority 1971, dated 1976)
Where a name gives a salt, the structure may show the parent alone.

How the values were obtained:
[1] = test system: virus (Vaccinia IHD, Encephalomyocarditis, Influenza Ao (PR8), Influenza A/Equine (Prague), Mengo, Semliki Forest); type: in vivo, mice; details: prior art compound prepared and tested by applicants
[2] = toxicity comparison of prior art compound with the compounds of the invention; details: prior art compound prepared and tested by applicants
Source text: The closest prior art compound known to applicants is 1,5-bis[N-(4-diethylamino- 1-methylbutyl)sulfamoyl]-anthraquinone. The preparation of this compound is disclosed in I. Kh. Fel'dman, Z. Ovsyanaya, and E. Kozlov, Tr. Leningr. Khim.-Farmatsevt. Inst. 1960 (11), 48-53; CA 59: 11312.

hygroscopicity = type: physicochemical; details: dihydrochloride salt
Description: Following the procedure of Example 1 and using anthraquinone-2,7-disulfonylchloride, the title compound was obtained. Since the dihydrochloride was hygroscopic, it was converted to the free base by stirring it in a 10% sodium carbonate solution and recrystallized from a mixture of ether and hexane, m.p. 93°-95°.

Vaccinia IHD = type: in vivo, mice; details: Vaccinia IHD 24 ID50, subcutaneous in tail; lesion scored on 7th day; subcutaneous treatment 28, 22, 4 hrs. pre- and 2, 20, 26 hrs. post-challenge; 2 to 50 mg. per kg.

## CCN(CC)CCCC(C)NS(=O)(=O)c1cccc2c1C(=O)c1cccc(S(=O)(=O)NC(C)CCCN(CC)CC)c1C2=O (stereo not shown) [1,5-bis[N-(4-diethylamino-1-methylbutyl)sulfamoyl]-anthraquinone]
[1]
  activity in antiviral tests used with the compounds of this invention: inactive
[2]
  toxicity relative to the compounds of this invention: very much more toxic than the compounds of this invention

## CCCCN(CCCC)CCCNS(=O)(=O)c1ccc2c(c1)C(=O)c1cc(S(=O)(=O)NCCCN(CCCC)CCCC)ccc1C2=O [Example 3 dihydrochloride]
hygroscopicity
  hygroscopicity: hygroscopic

## CCCCN(CCCC)CCCNS(=O)(=O)c1ccc2c(c1)C(=O)c1cc(S(=O)(=O)NCCCN(CCCC)CCCC)ccc1C2=O [Example 6, 2,7-Bis-[N-(3-dibutylaminopropyl)sulfamoyl]-anthraquinone]
Vaccinia IHD
  antiviral activity: lesions of treated animals compared to controls: fewer lesions
